Entries after “also recorded” stand apart in the source; their conditions may differ.
How the values were obtained:
[1] = test system: monocrotaline-induced hepatic venoocclusive disease; assay: monocrotaline-induced rat model of SOS (hepatic venoocclusive disease), blinded histologic scoring; type: in vivo; conditions: for prevention of SOS (overall histologic score, FIG. 1): monocrotaline model
From the text: This FIGURE describes the effect of MMP inhibition in the in monocrotaline-induced model of SOS. Injury is rated as absent (−) or as one, two or three plus. The overall score reflects central vein (CV) endothelial damage, hemorrhage and coagulative necrosis: 2-3 points is considered mild SOS, 4-6 points is considered moderate SOS and 7-9 points is severe disease. The MMP2/MMP9 inhibitor used is 2-[(4-biphenylylsulfonyl)amino]-3-phenyl-propionic acid.
The present invention provides methods for using matrix metalloproteinase inhibitors to prevent and treat chemotherapy-induced liver disease, such as SOS and radiation-induced liver disease. These studies were done in an in vivo model of monocrotaline-induced hepatic venoocclusive disease which closely resembles the human disease.^8 Two commercially available MMP inhibitors were tested in the in vivo rat model of hepatic venoocclusive disease: doxycycline and the MMP-2/MMP-9 inhibitor, 2-[(4-biphenylsulfonyl)amino]-3-phenyl-propionic acid. Doxycycline, 15 mg/kg was given twice daily by gavage prior to onset of the disease and continued until the time of sacrifice. 2-[(4-biphenylsulfonyl)amino]-3-phenyl-propionic acid, 200 μg/hour was infused into the portal circulation until the time of sacrifice. A systematic scoring system was devised to review all the changes associated with hepatic venoocclusive disease.
The rats that were treated with the MMP inhibitors were sacrificed on day 4, which is the time-point with most severe disease in this model of hepatic venoocclusive disease when no therapeutic interventions are used. […] Both of these MMP inhibitors prevent hepatic venoocclusive disease in a dose-dependent manner, these showing that this is a class effect of MMP inhibitors and characteristic of MMP inhibition.

[2] = test system: MMPs; conditions: stated in words, no test described; cited from earlier work

Molecule | hepatic venoocclusive disease on blinded pathology scoring ([1]; day 4, 200 μg/hour infused intraportally by osmotic minipump) | protection from liver changes at lower doses ([1]; doses lower than 15 mg/kg twice daily (doxycycline) or 200 μg/hour (BPP)) | prevention of SOS (overall histologic score, FIG. 1) ([1]; day 4, listed as 2-[(4-biphenylylsulfonyl)amino]-3-phenyl-propionic acid) | prevention of SOS (overall histologic score, FIG. 1) ([1]; day 4, listed as BPP) | inhibitory effect on MMPs [2] | prevention of SOS (overall histologic score, FIG. 1) ([1]; day 4)
O=C(O)C(Cc1ccccc1)NS(=O)(=O)c1ccc(-c2ccccc2)cc1 (centres unmarked) [2-[(4-biphenylsulfonyl)amino]-3-phenyl-propionic acid] | absence of hepatic venoocclusive disease | partial protection | completely prevented | completely inhibits SOS |  | 
Cc1c2c(c(O)c3c(O)cccc13)C(=O)[C@]1(O)C(=O)C(C(N)=O)=C(O)[C@@H](N(C)C)[C@@H]1C2 [anhydrotetracycline] |  |  |  |  | weak MMP inhibitors; also recorded: little inhibitory effect on MMPs | do not prevent SOS; also recorded: minimal protective effect
isochlorotetracycline |  |  |  |  | weak MMP inhibitors; also recorded: little inhibitory effect on MMPs | do not prevent SOS; also recorded: minimal protective effect

From patent US20020147158A1, “Composition and method for preventing and treating sinusoidal obstruction syndrome and radiation-induced liver disease” (University of Southern California, priority 2001, published 2002)
